Patent US20230048132A1, “CYCLIN-DEPENDENT KINASE INHIBITORS” (SPV THERAPEUTICS INC., priority 2018, published 2023)

Key:
MAXFHER SK-BR-3 = test: 2D cell proliferation assay (CellTiter-Blue); assay type: cell-based; conditions: Homo sapiens, 72 h, three days of treatment, read-out: abs. IC50
In short: (§1)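 Cells at 4,000-60,000/well recovered 24 h, then five full-log concentrations up to 100 μM in duplicate for three days at 37 °C. CellTiter-Blue fluorescence (ex 570/em 600 nm) after up to 4 h; T/C% vs untreated controls, relative IC50 and absolute IC50/IC70 by 4-parameter fit.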

LXFA NCl-H1975 = test: 2D cell proliferation assay (CellTiter-Blue); assay type: cell-based; conditions: 72 h, three days of treatment, read-out: abs. IC50
In short: as §1

MAXFTN MDA-MB-453 = test: 2D cell proliferation assay (CellTiter-Blue); assay type: cell-based; conditions: Homo sapiens, 72 h, three days of treatment, read-out: abs. IC50
In short: as §1

LEXFAM MV4-11 = test: 2D cell proliferation assay (CellTiter-Blue); assay type: cell-based; conditions: Homo sapiens, 72 h, three days of treatment, read-out: abs. IC50
In short: (§2)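 Exponential-phase cells plated, 24 h recovery; compound added at five concentrations in full-log steps (top 100 μM), duplicate; incubated 3 days, 37° C; CellTiter-Blue added, fluorescence measured; signal expressed as T/C% of untreated control and fitted (4-parameter) for IC50.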

PAXF MIA-Pa-Ca-2 = test: 2D cell proliferation assay (CellTiter-Blue); assay type: cell-based; conditions: Homo sapiens, MIA PaCa-2, 72 h, three days of treatment, read-out: abs. IC50
In short: as §1

MEXF A2058 = test: 2D cell proliferation assay (CellTiter-Blue); assay type: cell-based; conditions: Homo sapiens, 72 h, three days of treatment, read-out: abs. IC50
In short: as §1

PAXF BxPC-3 = test: 2D cell proliferation assay (CellTiter-Blue); assay type: cell-based; conditions: Homo sapiens, 72 h, three days of treatment, read-out: abs. IC50
In short: as §1

MAXFTN MDA-MB-231 (ER−) = test: 2D cell proliferation assay (CellTiter-Blue); assay type: cell-based; conditions: Homo sapiens, 72 h, three days of treatment, read-out: abs. IC50
In short: as §1

LXFA A549 = test: 2D cell proliferation assay (CellTiter-Blue); assay type: cell-based; conditions: Homo sapiens, 72 h, three days of treatment, read-out: abs. IC50
In short: as §2

CXF COLO 205 = test: 2D cell proliferation assay (CellTiter-Blue); assay type: cell-based; conditions: Homo sapiens, 72 h, three days of treatment, read-out: abs. IC50
In short: as §1

LEXFCL MEC-1 = test: 2D cell proliferation assay (CellTiter-Blue); assay type: cell-based; conditions: Homo sapiens, MEC1, 72 h, three days of treatment, read-out: abs. IC50
In short: as §1

UXF MFE-319 = test: 2D cell proliferation assay (CellTiter-Blue); assay type: cell-based; conditions: 72 h, three days of treatment, read-out: abs. IC50
In short: as §1

LEXFCM K-562 = test: 2D cell proliferation assay (CellTiter-Blue); assay type: cell-based; conditions: Homo sapiens, K562, 72 h, three days of treatment, read-out: abs. IC50
In short: as §1

PRXF VCap = test: 2D cell proliferation assay (CellTiter-Blue); assay type: cell-based; conditions: Homo sapiens, 72 h, three days of treatment, read-out: abs. IC50
In short: as §1

BXF 5637 = test: 2D cell proliferation assay (CellTiter-Blue); assay type: cell-based; conditions: 72 h, three days of treatment, read-out: abs. IC50
In short: as §1

PRXF DU-145 = test: 2D cell proliferation assay (CellTiter-Blue); assay type: cell-based; conditions: Homo sapiens, 72 h, three days of treatment, read-out: abs. IC50
In short: as §1

CNXF U-87 MG = test: 2D cell proliferation assay (CellTiter-Blue); assay type: cell-based; conditions: Homo sapiens, 72 h, three days of treatment, read-out: abs. IC50
In short: as §1

LXFL NCl-H1299 = test: 2D cell proliferation assay (CellTiter-Blue); assay type: cell-based; conditions: 72 h, three days of treatment, read-out: abs. IC50
In short: as §2

MAXFTN ZR-75-1 (ER+) = test: 2D cell proliferation assay (CellTiter-Blue); assay type: cell-based; conditions: Homo sapiens, 72 h, three days of treatment, read-out: abs. IC50
In short: as §2

PRXF LNCaP = test: 2D cell proliferation assay (CellTiter-Blue); assay type: cell-based; conditions: Homo sapiens, 72 h, three days of treatment, read-out: abs. IC50
In short: as §1

MEXF MDA-MB-435 = test: 2D cell proliferation assay (CellTiter-Blue); assay type: cell-based; conditions: Homo sapiens, 72 h, three days of treatment, read-out: abs. IC50
In short: as §1

LYXFNH U-937 = test: 2D cell proliferation assay (CellTiter-Blue); assay type: cell-based; conditions: Homo sapiens, 72 h, three days of treatment, read-out: abs. IC50
In short: as §1

CXF HT-29 = test: 2D cell proliferation assay (CellTiter-Blue); assay type: cell-based; conditions: Homo sapiens, 72 h, three days of treatment, read-out: abs. IC50
In short: as §1

MAXFLB T47D (ER+) = test: 2D cell proliferation assay (CellTiter-Blue); assay type: cell-based; conditions: Homo sapiens, 72 h, three days of treatment, read-out: abs. IC50
In short: as §1

GXA MKN45 = test: 2D cell proliferation assay (CellTiter-Blue); assay type: cell-based; conditions: Homo sapiens, MKN-45, 72 h, three days of treatment, read-out: abs. IC50
In short: as §1

MMXF U-266 = test: 2D cell proliferation assay (CellTiter-Blue); assay type: cell-based; conditions: Homo sapiens, 72 h, three days of treatment, read-out: abs. IC50
In short: as §1

MEXF WM-266-4 = test: 2D cell proliferation assay (CellTiter-Blue); assay type: cell-based; conditions: Homo sapiens, 72 h, three days of treatment, read-out: abs. IC50
In short: as §1

LIXFH Hep G2 = test: 2D cell proliferation assay (CellTiter-Blue); assay type: cell-based; conditions: Homo sapiens, HepG2, 72 h, three days of treatment, read-out: abs. IC50
In short: as §1

CEXF HeLa = test: 2D cell proliferation assay (CellTiter-Blue); assay type: cell-based; conditions: Homo sapiens, 72 h, three days of treatment, read-out: abs. IC50
In short: as §1

LIXAH HLE = test: 2D cell proliferation assay (CellTiter-Blue); assay type: cell-based; conditions: 72 h, three days of treatment, read-out: abs. IC50
In short: as §1

LXFL NCl-H460 = test: 2D cell proliferation assay (CellTiter-Blue); assay type: cell-based; conditions: 72 h, three days of treatment, read-out: abs. IC50
In short: as §1

CDK7 CyclinH = CDK7 CyclinH (Homo sapiens, UniProt P50613); test: CDK inhibition assay (microfluidic LabChip, IC50 format); assay type: biochemical; conditions: Table 4a
Sequence of CDK7 CyclinH (P50613 whole entry): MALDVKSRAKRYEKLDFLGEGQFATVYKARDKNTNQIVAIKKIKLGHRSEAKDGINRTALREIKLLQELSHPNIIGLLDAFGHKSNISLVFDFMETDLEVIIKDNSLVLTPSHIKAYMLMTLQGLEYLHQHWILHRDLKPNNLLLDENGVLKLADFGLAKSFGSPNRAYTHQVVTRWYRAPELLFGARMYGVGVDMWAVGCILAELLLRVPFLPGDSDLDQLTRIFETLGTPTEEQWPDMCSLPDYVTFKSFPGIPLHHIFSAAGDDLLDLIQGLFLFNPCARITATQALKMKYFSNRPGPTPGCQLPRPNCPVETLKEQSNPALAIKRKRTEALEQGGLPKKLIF
Sequence of CDK7 CyclinH (P51946 whole entry partner): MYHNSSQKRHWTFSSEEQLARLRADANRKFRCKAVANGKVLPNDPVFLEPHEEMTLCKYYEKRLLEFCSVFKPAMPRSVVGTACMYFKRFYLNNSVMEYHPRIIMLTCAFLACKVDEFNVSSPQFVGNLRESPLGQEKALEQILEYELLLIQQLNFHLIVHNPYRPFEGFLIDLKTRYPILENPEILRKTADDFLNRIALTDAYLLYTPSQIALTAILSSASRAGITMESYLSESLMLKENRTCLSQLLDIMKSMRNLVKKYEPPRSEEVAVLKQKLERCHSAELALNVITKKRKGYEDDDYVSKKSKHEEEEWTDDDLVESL
Sequence of CDK7 CyclinH (P51948 whole entry partner): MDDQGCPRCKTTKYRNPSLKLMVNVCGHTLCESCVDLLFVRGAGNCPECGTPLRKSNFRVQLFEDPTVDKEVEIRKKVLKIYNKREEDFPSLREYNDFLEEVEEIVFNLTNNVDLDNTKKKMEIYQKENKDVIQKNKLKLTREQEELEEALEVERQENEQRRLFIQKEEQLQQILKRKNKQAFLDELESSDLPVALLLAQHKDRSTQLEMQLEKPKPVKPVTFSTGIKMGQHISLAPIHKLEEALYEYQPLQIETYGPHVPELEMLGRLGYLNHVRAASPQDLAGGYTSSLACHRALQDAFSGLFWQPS

Row | IC50 (MAXFHER SK-BR-3) | IC50 (LXFA NCl-H1975) | IC50 (MAXFTN MDA-MB-453) | IC50 (LEXFAM MV4-11) | IC50 (PAXF MIA-Pa-Ca-2) | IC50 (PAXF BxPC-3) | IC50 (MAXFTN MDA-MB-231 (ER−)) | IC50 (LXFA A549) | IC50 (CXF COLO 205) | IC50 (LEXFCM K-562) | IC50 (PRXF VCap) | IC50 (PRXF DU-145) | IC50 (CNXF U-87 MG) | IC50 (LXFL NCl-H1299) | IC50 (PRXF LNCaP) | SMILES | IC50 (MEXF A2058) | IC50 (LEXFCL MEC-1) | IC50 (UXF MFE-319) | IC50 (BXF 5637) | IC50 (MAXFTN ZR-75-1 (ER+)) | other results
1 | 1.02 µM | 0.356 µM | 327 nM | ≤ 10 nM | 6.3 µM | 756 nM | 703 nM | 3.41 µM | 577 nM | 4.94 µM | 1.26 µM | 0.544 µM | 10.8 µM | 8.9 µM | 0.349 µM | O=C1NCC[C@@]12Cc1cnc(Nc3ccc(N4CCNCC4)cc3F)nc1N(C1CCCC1)C2=O [Example D146, (S)-8-cyclopentyl-2-((2-fluoro-4-(piperazin-1-yl)phenyl)amino)-5,8-dihydro-7H-spiro[pyrido[2,3-d]pyrimidine-6,3′-pyrrolidine]-2′,7-dione] | 1.53 µM | 0.142 µM | 1.14 µM | 1.49 µM | 9.03 µM | IC50 (MEXF MDA-MB-435): 0.875 µM; IC50 (LYXFNH U-937): ≤ 10 nM; IC50 (CXF HT-29): 8.98 µM; IC50 (MAXFLB T47D (ER+)): 1.63 µM; IC50 (GXA MKN45): 3.12 µM; IC50 (MMXF U-266): 4.55 µM; IC50 (MEXF WM-266-4): 6.22 µM; IC50 (LIXFH Hep G2): 341 nM; IC50 (CEXF HeLa): 1.57 µM; IC50 (LIXAH HLE): 0.928 µM; IC50 (LXFL NCl-H460): 2.13 µM; IC50 (CDK7 CyclinH): 1120 nM
2 | 31.9 µM | 16.6 µM | 2000 nM | ≤ 10 nM | 65.9 µM | 12100 nM | 2450 nM | 69.9 µM | 6220 nM | 75.7 µM | 21.1 µM | 19.2 µM | 75.5 µM | 30.1 µM | 20.8 µM | CN(C)[C@H]1CCN(c2ccc(Nc3ncc4c(n3)N(C3CCCC3)C(=O)[C@]3(CCNC3=O)C4)nc2)C1 [Example D178, (S)-8-cyclopentyl-2-((5-((S)-3-(dimethylamino)pyrrolidin-1-yl)pyridin-2-yl)amino)-5,8-dihydro-7H-spiro[pyrido[2,3-d]pyrimidine-6,3′-pyrrolidine]-2′,7-dione] | 60.4 µM | 37 µM | 11.3 µM | 34.3 µM | 88.2 µM | IC50 (MEXF MDA-MB-435): 18.3 µM; IC50 (LYXFNH U-937): ≤ 10 nM; IC50 (CXF HT-29): 31.8 µM; IC50 (MAXFLB T47D (ER+)): 46.2 µM; IC50 (GXA MKN45): 47.3 µM; IC50 (MMXF U-266): 62.3 µM; IC50 (MEXF WM-266-4): 74.4 µM; IC50 (LIXFH Hep G2): 5310 nM; IC50 (CEXF HeLa): 36.9 µM; IC50 (LIXAH HLE): 21.3 µM; IC50 (LXFL NCl-H460): 63.4 µM; IC50 (CDK7 CyclinH): 1130 nM
3 | 0.328 µM | 0.029 µM | 57 nM | ≤ 10 nM | 0.163 µM | 116 nM | 53 nM | 3.31 µM | 101 nM | 0.355 µM | 0.037 µM | 0.047 µM | ≥ 100 µM | 0.353 µM | 0.024 µM | CN(C)CCOc1ccc(Nc2ncc3c(n2)N(C2CCCC2)C(=O)[C@]2(CCNC2=O)C3)cc1 [Example D179, (S)-8-cyclopentyl-2-((4-(2-(dimethylamino)ethoxy)phenyl)amino)-5,8-dihydro-7H-spiro[pyrido[2,3-d]pyrimidine-6,3′-pyrrolidine]-2′,7-dione] | 0.174 µM | 0.447 µM | 0.144 µM | 0.143 µM | 0.409 µM | IC50 (MEXF MDA-MB-435): 0.102 µM; IC50 (LYXFNH U-937): ≤ 10 nM; IC50 (CXF HT-29): 0.562 µM; IC50 (MAXFLB T47D (ER+)): 0.829 µM; IC50 (GXA MKN45): 0.112 µM; IC50 (MMXF U-266): 0.814 µM; IC50 (MEXF WM-266-4): 0.272 µM; IC50 (LIXFH Hep G2): 37 nM; IC50 (CEXF HeLa): 0.268 µM; IC50 (LIXAH HLE): 0.103 µM; IC50 (LXFL NCl-H460): 0.274 µM; IC50 (CDK7 CyclinH): 321 nM
4 | 13.8 µM | 26.3 µM | 7680 nM | ≤ 10 nM | 73.9 µM | 2870 nM | 4860 nM | 79.2 µM | 4760 nM | 84.4 µM | 25.4 µM | 30.6 µM | ≥ 100 µM | 37.3 µM | 31.1 µM | CC(C)N1CCN(c2ccc(Nc3ncc4c(n3)N(C3CCCC3)C(=O)[C@]3(CCNC3=O)C4)nc2)CC1 [Example D154, (S)-8-cyclopentyl-2-((5-(4-isopropylpiperazin-1-yl)pyridin-2-yl)amino)-5,8-dihydro-7H-spiro[pyrido[2,3-d]pyrimidine-6,3′-pyrrolidine]-2′,7-dione] | 14.5 µM | 9.7 µM | 5.43 µM | 17.6 µM | ≥ 100 µM | IC50 (MEXF MDA-MB-435): 16 µM; IC50 (LYXFNH U-937): ≤ 10 nM; IC50 (CXF HT-29): 29.9 µM; IC50 (MAXFLB T47D (ER+)): 97.4 µM; IC50 (GXA MKN45): 47.8 µM; IC50 (MMXF U-266): 78.5 µM; IC50 (MEXF WM-266-4): 81.3 µM; IC50 (LIXFH Hep G2): 8140 nM; IC50 (CEXF HeLa): 72.6 µM; IC50 (LIXAH HLE): 21.5 µM; IC50 (LXFL NCl-H460): 35.3 µM; IC50 (CDK7 CyclinH): 13500 nM
